Converted amounts (≈) assume the structure as drawn. Like-named read-outs stand apart in the source and are kept apart here.
Legend:
Streptococcus pyogenes = assay: In vitro minimum inhibitory concentration (MIC), two-fold serial dilution in Brain-Heart Infusion broth; assay type: cell-based; conditions: read-out: MIC vs. Strep. pyogenes
Procedure: The antibacterial penam compounds, 6, show activity against a wide variety of gram-positive and gram-negative bacteria. […] The broth is inoculated with the bacterial culture, and with the test antibiotic, and then it is incubated overnight. On the next day, the test is read visually. The minimum inhibitory concentration (MIC) is the lowest concentration of antibiotic which prevents turbidity, i.e., which prevents growth of the microorganism. In vitro activities of several of the penam compounds of the invention are presented later in this specification.
In vitro antibacterial activities for a number of compounds prepared by the procedure of Example 4 are presented below.
In Table II, the minimum inhibitory concentrations (MIC's) of numerous compounds against a strain of Streptococcus pyogenes, are reported.

Staphylococcus aureus = assay: In vivo protection of mice against systemic infection by lethal intraperitoneal inoculum of Staphylococcus aureus; design: species or system infected mice; Staphylococcus aureus; conditions: SC, multiple dosing
Procedure: (§1) These antibacterial penam compounds are also active in vivo. In determining such activity, the test antibiotic is administered to infected mice, using a multiple dosing regimen. The severity of the infection varies from about one to about ten times the dose needed to kill 100% of the mice under the conditions of the test. At the end of the test, the activity of a compound is assessed by counting the number of survivors among the treated animals. Both the subcutaneous (SC) and oral (PO) dosage routes are used. Results are given in Table I for two compounds produced from the novel intermediate of the invention. The ability of the compounds to protect mice against systemic infections caused by a lethal intraperitoneal inoculum of Staphylococcus aureus or of Escherichia coli is presented.

Escherichia coli = assay: In vivo protection of mice against systemic infection by lethal intraperitoneal inoculum of Escherichia coli; design: species or system infected mice; Escherichia coli; conditions: multiple dosing
Procedure: as §1

[1] = two-fold serial dilution, Brain-Heart Infusion broth, overnight incubation

Row | SMILES | MIC (Streptococcus pyogenes; [1]) [µg/mL] | other results
1 | CC1(C)SC2C(NC(=O)C=CC(N)=O)C(=O)N2C1c1nn[nH]n1 (stereo not drawn) [3-(carbamoyl)acryloyl] | < 0.1 | –
2 | CC1(C)SC2C(NC(=O)[C@H](N)c3ccccc3)C(=O)N2C1c1nn[nH]n1 (stereo partly drawn) [D-2-amino-2-phenylacetyl] | < 0.1 | –
3 | CCOC(=O)NC1C(=O)N2C1SC(C)(C)C2c1nn[nH]n1 (stereo not drawn) [ethoxycarbonyl] | < 0.1 | –
4 | CC1(C)S[C@@H]2C(NC(=O)[C@H](N)c3ccc(O)cc3)C(=O)N2C1c1nnn[nH]1 (stereo partly drawn) [6-(D-2-amino-2-[p-hydroxyphenyl]acetamido)-2,2-dimethyl-3-(5-tetrazolyl)penam] | < 0.1 | Percentage Protection S. aureus (Staphylococcus aureus; 6 mg./kg.): 50 Percentage; Percentage Protection S. aureus (Staphylococcus aureus; 12 mg./kg.): 50 Percentage; Percentage Protection S. aureus (Staphylococcus aureus; 25 mg./kg.): 70 Percentage; Percentage Protection S. aureus (Staphylococcus aureus; 50 mg./kg.): 80 Percentage; Percentage Protection E. coli (Escherichia coli; 25 mg./kg., SC): 80 Percentage; Percentage Protection E. coli (Escherichia coli; 50 mg./kg., SC): 100 Percentage; Percentage Protection E. coli (Escherichia coli; 200 mg./kg., PO): 100 Percentage
5 | CC1(C)S[C@@H]2C(NC(=O)[C@H](N)c3ccsc3)C(=O)N2C1c1nnn[nH]1 (stereo partly drawn) [6-(D-2-amino-2-[3-thienyl]acetamido)-2,2-dimethyl-3-(5-tetrazolyl)penam] | – | Percentage Protection S. aureus (Staphylococcus aureus; 6 mg./kg.): 50 Percentage; Percentage Protection S. aureus (Staphylococcus aureus; 12 mg./kg.): 50 Percentage; Percentage Protection S. aureus (Staphylococcus aureus; 25 mg./kg.): 60 Percentage; Percentage Protection S. aureus (Staphylococcus aureus; 50 mg./kg.): 40 Percentage; Percentage Protection E. coli (Escherichia coli; 25 mg./kg., SC): 20 Percentage; Percentage Protection E. coli (Escherichia coli; 50 mg./kg., SC): 20 Percentage; Percentage Protection E. coli (Escherichia coli; 200 mg./kg., PO): 0 Percentage
6 | CC1(C)SC2C(NC(=O)C(N)c3ccc(O)c(O)c3)C(=O)N2C1c1nn[nH]n1 (racemic) [DL-2-amino-2-(3,4-dihydroxyphenyl)acetyl] | < 0.1 | –
7 | CC1(C)SC2C(NC(=O)C3(N)CCCCC3)C(=O)N2C1c1nn[nH]n1 (stereo not drawn) [1-aminocyclohexylcarbonyl] | 25 (≈ 68.4 µM) | –
8 | Cc1onc(-c2ccccc2Cl)c1C(=O)NC1C(=O)N2C1SC(C)(C)C2c1nn[nH]n1 (stereo not drawn) | < 0.1 | –
9 | CC1(C)SC2C(NC(=O)C(N)c3cccc(Cl)c3)C(=O)N2C1c1nn[nH]n1 (racemic) [DL-2-amino-2-(m-chlorophenyl)acetyl] | 0.78 (≈ 1.91 µM) | –
10 | CC1(C)SC2C(NC(=O)Cn3cnnn3)C(=O)N2C1c1nn[nH]n1 (stereo not drawn) [2-(1-tetrazolyl)acetyl] | < 0.39 | –
11 | CC1(C)SC2C(NC(=O)OCc3ccccc3)C(=O)N2C1c1nn[nH]n1 (stereo not drawn) [benzyloxycarbonyl] | < 0.1 | –
12 | CC1(C)SC2C(NC(=O)CBr)C(=O)N2C1c1nn[nH]n1 (stereo not drawn) [2-bromoacetyl] | < 0.1 | –
13 | CC1(C)SC2C(NC(=O)COc3ccccc3)C(=O)N2C1c1nn[nH]n1 (stereo not drawn) [2-phenoxyacetyl] | < 0.1 | –
14 | CC1(C)SC2C(NC(=O)CSc3ccncc3)C(=O)N2C1c1nn[nH]n1 (stereo not drawn) [2-(4-pyridylthio)acetyl] | – | MIC (Streptococcus pyogenes): < 0.1 µg/mL
15 | CC1(C)SC2C(NC(=O)[C@H](N)c3ccc(O)c(Cl)c3)C(=O)N2C1c1nn[nH]n1 (stereo partly drawn) | 0.1 (≈ 0.236 µM) | –
16 | CC(C)[C@@H](N)C(=O)NC1C(=O)N2C1SC(C)(C)C2c1nn[nH]n1 (stereo partly drawn) [D-2-amino-3-methylbutyryl] | 0.2 (≈ 0.589 µM) | –

Row | SMILES | MIC (Streptococcus pyogenes; [1]) [µg/mL] | other results
17 | CC1(C)SC2C(NC(=O)Oc3ccccc3)C(=O)N2C1c1nn[nH]n1 (stereo not drawn) [phenoxycarbonyl] | – | MIC (Streptococcus pyogenes): < 0.1 µg/mL
18 | COc1cccc(OC)c1C(=O)NC1C(=O)N2C1SC(C)(C)C2c1nn[nH]n1 (stereo not drawn) [2,6-dimethoxybenzoyl] | < 0.2 | –
19 | CC1(C)SC2C(NC(=O)[C@H](N)c3cccc(F)c3)C(=O)N2C1c1nn[nH]n1 (stereo partly drawn) [D-2-amino-2-(m-fluorophenyl)acetyl] | < 0.1 | –
20 | CC1(C)S[C@@H]2C(NC(=O)Cc3ccccc3)C(=O)N2C1c1nnn[nH]1 (stereo partly drawn) [2-phenylacetyl, 6-(2-phenylacetamido)-2,2-dimethyl-3-(5-tetrazolyl)penam] | < 0.1 | –
21 | CC1(C)SC2C(NC(=O)C(N)c3cc(O)ccc3Br)C(=O)N2C1c1nn[nH]n1 (racemic) | < 0.1 | –
22 | CC1(C)S[C@@H]2C(N)C(=O)N2C1c1nnn[nH]1 (stereo partly drawn) [hydrogen, 6-Amino-2,2-dimethyl-3-(5-tetrazolyl)penam] | < 0.1 | –
23 | CN(C)c1ccc(C(N)C(=O)NC2C(=O)N3C2SC(C)(C)C3c2nn[nH]n2)cc1 (racemic) | 0.39 (≈ 0.936 µM) | –
24 | CC1(C)SC2C(NC(=O)C(N)c3ccc(Cl)cc3)C(=O)N2C1c1nn[nH]n1 (racemic) [DL-2-amino-2-(p-chlorophenyl)acetyl] | < 0.1 | –
25 | CC1(C)SC2C(NC(=O)CC#N)C(=O)N2C1c1nn[nH]n1 (stereo not drawn) [2-cyanoacetyl] | 0.1 (≈ 0.325 µM) | –
26 | CC1(C)SC2C(NC(=O)[C@H](N)Cc3ccccc3)C(=O)N2C1c1nn[nH]n1 (stereo partly drawn) [D-2-amino-3-phenylpropionyl] | 0.39 (≈ 1.01 µM) | –
27 | CC(=O)NC1C(=O)N2C1SC(C)(C)C2c1nn[nH]n1 (stereo not drawn) [acetyl] | < 0.1 | –
28 | CC1(C)SC2C(NC(=O)[C@H](N)c3cccc(O)c3)C(=O)N2C1c1nn[nH]n1 (stereo partly drawn) [D-2-amino-2-(m-hydroxyphenyl)acetyl] | < 0.1 | –
29 | CC1(C)SC2C(NC(=O)[C@@H](N)c3ccc(O)cc3)C(=O)N2C1c1nn[nH]n1 (stereo partly drawn) [L-2-amino-2-(p-hydroxyphenyl)acetyl] | < 0.1 | –
30 | CC1(C)SC2C(NC(=O)C(N=[N+]=[N-])c3ccccc3)C(=O)N2C1c1nn[nH]n1 (stereo not drawn) [2-azido-2-phenylacetyl] | < 0.1 | –
31 | CCN=C(NCC)SCC(=O)NC1C(=O)N2C1SC(C)(C)C2c1nn[nH]n1 (stereo not drawn) [2-(N,N'-diethylamidinothio)acetyl] | < 0.1 | –
32 | CC1(C)SC2C(NC(=O)[C@H](N)c3cccs3)C(=O)N2C1c1nn[nH]n1 (stereo partly drawn) [D-2-amino-2-(2-thienyl)acetyl] | 0.1 (≈ 0.264 µM) | –
